Test results: ChEMBL document CHEMBL4028866 (J Med Chem, 2017)

Key:
in vivo [1] = conditions: Sprague-Dawley, rat, po, 10 mg/mg
in vivo [2] = conditions: Sprague-Dawley, rat, iv, 1 mg/mg
in vivo [3] = conditions: Sprague-Dawley, rat, po, 10 mg/mg; remark: listed apart in the source
Rattus norvegicus = species on record: Rattus norvegicus; conditions: in vivo, po
in vivo [4] = conditions: Sprague-Dawley, rat, po, 10 mg/mg; remark: listed apart in the source
in vivo [5] = conditions: Sprague-Dawley, rat, po, 10 mg/mg; remark: listed apart in the source
in vivo [6] = conditions: Sprague-Dawley, rat, po, 10 mg/mg; remark: listed apart in the source
in vivo [7] = conditions: Sprague-Dawley, rat, iv, 1 mg/mg; remark: listed apart in the source
in vivo [8] = conditions: Sprague-Dawley, rat, po, 10 mg/mg; remark: listed apart in the source
in vivo [9] = conditions: Sprague-Dawley, rat, iv, 1 mg/mg; remark: listed apart in the source
in vivo [10] = conditions: Sprague-Dawley, rat, po, 10 mg/mg; remark: listed apart in the source
in vivo [11] = conditions: Sprague-Dawley, rat, iv, 1 mg/mg; remark: listed apart in the source
in vivo [12] = conditions: Sprague-Dawley, rat, iv, 1 mg/mg; remark: listed apart in the source
in vivo [13] = conditions: Sprague-Dawley, rat, iv, 1 mg/mg; remark: listed apart in the source
in vivo [14] = conditions: Sprague-Dawley, rat, po, 10 mg/mg; remark: listed apart in the source
in vivo [15] = conditions: Sprague-Dawley, rat, iv, 1 mg/mg; remark: listed apart in the source
in vivo [16] = conditions: Sprague-Dawley, rat, iv, 1 mg/mg; remark: listed apart in the source

## CC(C)(C)c1cc(NC(=O)Nc2ccc(-n3nc(-c4ccc(OCCN5CCOCC5)cc4)c4c(N)ncnc43)cc2)no1
In vivo [1]
  AUC(0-inf): 991 ng·h/mL
In vivo [2]
  half-life: 3.34 h
In vivo [3]
  half-life: 3.61 h
Rattus norvegicus
  Vz: 0.06082 L/kg
In vivo [4]
  MRT inf: 7.22 h
In vivo [5]
  Cmax: 83.5 ng/mL
In vivo [6]
  bioavailability: 18.8%
In vivo [7]
  MRT inf: 3.13 h
In vivo [8]
  CL/F: 0.193 mL/min/kg
In vivo [9]
  AUC(0-inf): 525 ng·h/mL
In vivo [10]
  Tmax: 6.66 h
In vivo [11]
  Cmax: 839 ng/mL
In vivo [12]
  clearance: 0.0345 mL/min/kg
In vivo [13]
  AUC(0-t): 520 ng·h/mL
In vivo [14]
  AUC(0-t): 978 ng·h/mL
In vivo [15]
  Tmax: 1.02 min

## CC(C)(C)c1cc(NC(=O)Nc2ccc(-c3cn4c(n3)sc3cc(OCCN5CCOCC5)ccc34)cc2)no1 [QUIZARTINIB]
In vivo [1]
  AUC(0-inf): 15000 ng·h/mL
In vivo [2]
  half-life: 4.38 h
In vivo [3]
  half-life: 3.73 h
Rattus norvegicus
  Vz: 4.078 L/kg
In vivo [4]
  MRT inf: 10.1 h
In vivo [5]
  Cmax: 1140 ng/mL
In vivo [6]
  bioavailability: 75.9%
In vivo [7]
  MRT inf: 5.83 h
In vivo [8]
  CL/F: 12.6 mL/min/kg
In vivo [9]
  AUC(0-inf): 1970 ng·h/mL
In vivo [10]
  Tmax: 8 h
In vivo [11]
  Cmax: 728 ng/mL
In vivo [12]
  clearance: 9.35 mL/min/kg
In vivo [13]
  AUC(0-t): 1930 ng·h/mL
In vivo [14]
  AUC(0-t): 14500 ng·h/mL
In vivo [15]
  Tmax: 1.8 min
In vivo [16]
  Vd: 3.53 L/kg
